According to patent US20130184273A1, “BICYCLIC PYRIMIDINES” (Bayer Intellectual Property GmbH, priority 2010, published 2013):

Columns and labels:
[1] = biological target: T1, His-tagged human recombinant kinase full-length Akt1 (Homo sapiens, UniProt P31749); assay: Akt1 kinase assay (TR-FRET); format: biochemical; conditions: 10 μM ATP, 60 min at 22° C., read-out: Akt1, median IC50
T1 construct: His-tagged human recombinant kinase full-length Akt1; His; purchased Invitrogen PV 3599; host or cells: insect cells
Text: Akt1 inhibitory activity of compounds of the present invention was quantified employing the Akt1 TR-FRET assay as described in the following paragraphs.
(§1) His-tagged human recombinant kinase full-length Akt1 expressed in insect cells was purchased form Invitrogen (part number PV 3599). As substrate for the kinase reaction the biotinylated peptide biotin-Ahx-KKLNRTLSFAEPG (C-terminus in amide form) was used which can be purchased e.g. from the company Biosynthan GmbH (Berlin-Buch, Germany).
(§2) For the assay 50 nl of a 100 fold concentrated solution of the test compound in DMSO was pipetted into a black low volume 384well microtiter plate (Greiner Bio-One, Frickenhausen, Germany), 2 μl of a solution of Akt1 in assay buffer [50 mM TRIS/HCl pH 7.5, 5 mM MgCl2, 1 mM dithiothreitol, 0.02% (v/v) Triton X-100 (Sigma)] were added and the mixture was incubated for 15 min at 22° C. to allow pre-binding of the test compounds to the enzyme before the start of the kinase reaction. Then the kinase reaction was started by the addition of 3 μl of a solution of adenosine-tri-phosphate (ATP, 16.7 μM=>final conc. in the 5 μl assay volume is 10 μM) and substrate (1.67 μM=>final conc. in the 5 μl assay volume is 1 μM) in assay buffer and the resulting mixture was incubated for a reaction time of 60 min at 22° C. The concentration of Akt1 in the assay was adjusted depending of the activity of the enzyme lot and was chosen appropriate to have the assay in the linear range, typical enzyme concentrations were in the range of about 0.05 ng/μl (final conc. in the 5 μl assay volume).
The reaction was stopped by the addition of 5 μl of a solution of HTRF detection reagents (200 nM streptavidine-XL665 [Cisbio] and 1.5 nM anti-phosho-Serine antibody [Millipore, cat. #35-001] and 0.75 nM LANCE Eu-W 1024 labeled anti-mouse IgG antibody [Perkin Elmer]) in an aqueous EDTA-solution (100 mM EDTA, 0.1% (w/v) bovine serum albumin in 50 mM HEPES/NaOH pH 7.5). The resulting mixture was incubated 1 h at 22° C. to allow the binding of the biotinylated phosphorylated peptide to the streptavidine-XL665 and the antibodies. Subsequently the amount of phosphorylated substrate was evaluated by measurement of the resonance energy transfer from the anti-mouse-IgG-Eu-Chelate to the streptavidine-XL665. Therefore, the fluorescence emissions at 620 nm and 665 nm after excitation at 350 nm was measured in a HTRF reader, e.g. a Rubystar (BMG Labtechnologies, Offenburg, Germany) or a Viewlux (Perkin-Elmer). The ratio of the emissions at 665 nm and at […] was taken as the measure for the amount of phosphorylated substrate. The data were normalised (enzyme reaction without inhibitor=0% inhibition, all other assay components but no enzyme=100% inhibition).

[2] = biological target: T2, His-tagged human recombinant kinase full-length Akt2 (Homo sapiens, UniProt P31751); assay: Akt2 kinase assay (TR-FRET); format: biochemical; conditions: 10 μM ATP, 60 min at 22° C., read-out: Akt2, median IC50
T2 construct: His-tagged human recombinant kinase full-length Akt2; His; purchased Invitrogen PV 3975; host or cells: insect cells
Text: Akt2 inhibitory activity of compounds of the present invention was quantified employing the Akt2 TR-FRET assay as described in the following paragraphs.
as §1, with “Akt2” for “Akt1”, “cells and activated by PDK1” for “cells”, “3975).” for “3599).”
as §2, with “Akt2” for “Akt1”, “0.2” for “0.05”
The reaction was stopped by the addition of 5 μl of a solution of HTRF detection reagents (200 nM streptavidine-XL665 [Cisbio] and 1.5 nM anti-phosho-Serine antibody [Millipore, cat. #35-001] and 0.75 nM LANCE Eu-W 1024 labeled anti-mouse IgG antibody [Perkin Elmer]) in an aqueous EDTA-solution (100 mM EDTA, 0.1% (w/v) bovine serum albumin in 50 mM HEPES/NaOH pH 7.5).
The resulting mixture was incubated 1 h at 22° C. to allow the binding of the biotinylated phosphorylated peptide to the streptavidine-XL665 and the antibodies.
Subsequently the amount of phosphorylated substrate was evaluated by measurement of the resonance energy transfer from the anti-mouse-IgG-Eu-Chelate to the streptavidine-XL665. Therefore, the fluorescence emissions at 620 nm and 665 nm after excitation at 350 nm was measured in a TR-FRET reader, e.g. a Rubystar (BMG Labtechnologies, Offenburg, Germany) or a Viewlux (Perkin-Elmer). The ratio of the emissions at 665 nm and at […] was taken as the measure for the amount of phosphorylated substrate. The data were normalised (enzyme reaction without inhibitor=0% inhibition, all other assay components but no enzyme=100% inhibition).

T2 sequence (P31751 whole entry): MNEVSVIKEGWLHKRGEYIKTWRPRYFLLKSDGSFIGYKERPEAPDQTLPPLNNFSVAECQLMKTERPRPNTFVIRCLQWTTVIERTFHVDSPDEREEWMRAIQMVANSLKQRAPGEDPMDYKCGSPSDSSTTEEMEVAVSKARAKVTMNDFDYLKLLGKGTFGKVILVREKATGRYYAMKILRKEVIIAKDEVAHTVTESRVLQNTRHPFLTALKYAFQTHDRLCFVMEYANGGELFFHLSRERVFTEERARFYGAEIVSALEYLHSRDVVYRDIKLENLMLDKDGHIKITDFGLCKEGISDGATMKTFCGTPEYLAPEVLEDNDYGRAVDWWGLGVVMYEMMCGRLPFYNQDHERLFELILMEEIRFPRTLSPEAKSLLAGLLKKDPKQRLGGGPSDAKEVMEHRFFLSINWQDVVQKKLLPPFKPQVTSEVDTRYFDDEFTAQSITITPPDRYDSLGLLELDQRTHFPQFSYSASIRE
T1 sequence (P31749 whole entry): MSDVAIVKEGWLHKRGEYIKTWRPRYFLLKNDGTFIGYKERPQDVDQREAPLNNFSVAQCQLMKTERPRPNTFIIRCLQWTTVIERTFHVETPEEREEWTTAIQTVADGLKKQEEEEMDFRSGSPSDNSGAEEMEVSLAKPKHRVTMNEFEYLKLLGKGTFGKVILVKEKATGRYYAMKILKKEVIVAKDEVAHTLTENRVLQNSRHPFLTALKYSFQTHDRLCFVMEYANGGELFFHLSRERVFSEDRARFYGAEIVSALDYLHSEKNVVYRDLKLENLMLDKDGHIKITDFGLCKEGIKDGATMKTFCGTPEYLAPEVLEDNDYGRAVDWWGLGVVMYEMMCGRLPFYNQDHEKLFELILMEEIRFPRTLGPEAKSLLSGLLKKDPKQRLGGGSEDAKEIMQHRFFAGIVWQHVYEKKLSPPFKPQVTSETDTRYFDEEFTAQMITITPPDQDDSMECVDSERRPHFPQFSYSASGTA

Compound | IC50 [1] | IC50 [2]
Cc1nc2nc(-c3ccc(C4(N)CCCC4)cc3)c(-c3ccccc3)cn2n1 [Example 1-1, 1-[4-(2-methyl-6-phenyl-[1,2,4]triazolo[1,5-a]pyrimidin-5-yl)-phenyl]-cyclopentylamine] | 2570 nM | 3260 nM
Cc1nc2nc(-c3ccc(C4(N)CC4)cc3)c(-c3ccccc3)cn2n1 [Example 1-2, 1-[4-(2-methyl-6-phenyl-[1,2,4]triazolo[1,5-a]pyrimidin-5-yl)-phenyl]-cyclopropylamine] | 3010 nM | 2220 nM
Cc1nc2nc(-c3ccc(C4(N)CCC4)cc3)c(-c3ccccc3)c(C)n2n1 [Example 1-3, 1-[4-(2,7-dimethyl-6-phenyl-[1,2,4]triazolo[1,5-a]pyrimidin-5-yl)-phenyl]-cyclobutylamine] | 526 nM | 1020 nM
NC1(c2ccc(-c3nc4nccn4cc3-c3ccccc3)cc2)CCC1 [Example 2-0, 1-[4-(6-Phenyl-imidazo[1,2-a]pyrimidin-7-yl)-phenyl]-cyclobutylamine] | 2220 nM | 1640 nM
NC1(c2ccc(-c3nc4nccn4c(NC4CC4)c3-c3ccccc3)cc2)CCC1 [Example 2-2, {7-[4-(1-Amino-cyclobutyl)-phenyl]-6-phenyl-imidazo[1,2-a]pyrimidin-5-yl)-cyclopropylamine] | 2050 nM | 1580 nM
NC1(c2ccc(-c3nc4nccn4c(N4CCOCC4)c3-c3ccccc3)cc2)CCC1 [Example 2-3, 1-[4-(5-Morpholino-4-yl-6-phenyl-imidazo[1,2-a]pyrimidin-7-yl)phenyl]-cyclobutylamine] | 13100 nM | 7470 nM
COC[C@H](C)Nc1c(-c2ccccc2)c(-c2ccc(C3(N)CCC3)cc2)nc2nccn12 [Example 2-4, {7-[4-(1-Amino-cyclobutyl)-phenyl]-6-phenyl-imidazo[1,2-a]pyrimidin-5-yl}-((S)-2-methoxy-1-methyl-ethyl)-amine] | 10600 nM | 1270 nM
COC[C@H](C)Nc1c(-c2ccccc2)c(-c2ccc(C3(N)CCC3)cc2)nc2nc(C)cn12 [Example 2-6, {7-[4-(1-Amino-cyclobutyl)-phenyl]-2-methyl-6-phenyl-imidazo[1,2-a]pyrimidin-5-yl}-((S)-2-methoxy-1-methyl-ethyl)-amine] | 13000 nM | 2860 nM
NC1(c2ccc(-c3nc4nc(-c5ccccn5)nn4c(NC4CC4)c3-c3ccccc3)cc2)CCC1 [Example 3-1, {5-[4-(1-Aminocyclobutyl)-phenyl]-6-phenyl-2-pyridine-2-yl-[1,2,4]triazolo[1,5-a]pyrimidin-7-yl}-cyclopropylamine] | 2380 nM | 2320 nM
NC1(c2ccc(-c3nc4nc(-c5ccccn5)nn4c(N4CCOCC4)c3-c3ccccc3)cc2)CCC1 [Example 3-2, 1-[4-(7-Morpholine-4-yl-6-phenyl-2-pyridine-2-yl-[1,2,4]triazolo[1,5-a]pyrimidin-5-yl)-phenyl]-cyclobutylamine] | ≥ 20000 nM | 6640 nM
CCOC(=O)C1(Nc2c(-c3ccccc3)c(-c3ccc(C4(N)CCC4)cc3)nc3nc(C)nn23)CCC1 [Example 3-3, 1-{5-[4-(1-Aminocyclobutyl)-phenyl]-2-methyl-6-phenyl-[1,2,4]triazolo[1,5-a]pyrimidin-7-ylamino}-cyclobutanecarboxylic acid ethyl ester] | ≥ 20000 nM | 1120 nM
COCCCNc1c(-c2ccccc2)c(-c2ccc(C3(N)CCC3)cc2)nc2nc(C)nn12 [Example 3-4, {5-[4-(1-Amino-cyclobutyl)-phenyl]-2-methyl-6-phenyl-[1,2,4]triazolo[1,5-a]pyrimidin-7-yl}-(3-methoxy-propyl)-amine] | 18200 nM | 9350 nM
Cc1nc2nc(-c3ccc(C4(N)CCC4)cc3)c(-c3ccccc3)c(NCCc3ccc(F)cc3)n2n1 [Example 3-5, {5-[4-(1-Amino-cyclobutyl)-phenyl]-2-methyl-6-phenyl-[1,2,4]triazolo[1,5-a]pyrimidin-7-yl}-[2-(4-fluoro-phenyl)-ethyl]-amine] | 18800 nM | 3560 nM
COCCNc1nc2nc(-c3ccc(C4(N)CCC4)cc3)c(-c3ccccc3)cn2n1 [Example 5-0, {5-[4-(1-Amino-cyclobutyl)-phenyl]-6-phenyl-[1,2,4]triazolo[1,5-a]pyrimidin-2-yl}-(2-methoxy-ethyl)-amine] | 1830 nM | 877 nM
CCNc1nc2nc(-c3ccc(C4(N)CCC4)cc3)c(-c3ccccc3)cn2n1 [Example 5-1, {5-[4-(1-amino-cyclobutyl)-phenyl]-6-phenyl-[1,2,4]triazolo[1,5-a]pyrimidin-2-yl}-ethyl-amine] | 958 nM | 502 nM
NC1(c2ccc(-c3nc4nc(NCc5ccncc5)nn4cc3-c3ccccc3)cc2)CCC1 [Example 5-6, {5-[4-(1-amino-cyclobutyl)-phenyl]-6-phenyl-[1,2,4]triazolo[1,5-a]pyrimidin-2-yl}-pyridin-4-ylmethyl-amine] | 5650 nM | 2550 nM
Cc1nc2nc(-c3ccc(C4(N)CCC4)cc3)c(-c3ccccc3)c(NC(C)C)n2n1 [Example 5-7, {5-[4-(1-amino-cyclobutyl)-phenyl]-2-methyl-6-phenyl-[1,2,4]triazolo[1,5-a]pyrimidin-7-yl}-isopropyl-amine] | 672 nM | 549 nM
Cc1nc2nc(-c3ccc(C4(N)CCC4)cc3)c(-c3ccccc3)c(NCC3CC3)n2n1 [Example 5-9, {5-[4-(1-amino-cyclobutyl)-phenyl]-2-methyl-6-phenyl-[1,2,4]triazolo[1,5-a]pyrimidin-7-yl}-cyclopropylmethyl-amine] | 854 nM | 541 nM
CNc1c(-c2ccccc2)c(-c2ccc(C3(N)CCC3)cc2)nc2nc(C3CC3)nn12 [Example 5-10, {5-[4-(1-amino-cyclobutyl)-phenyl]-2-cyclopropyl-6-phenyl-[1,2,4]triazolo[1,5-a]pyrimidin-7-yl}-methyl-amine] | 930 nM | 982 nM
